How the values were obtained:
[1] = LD-50 mice i.p. (acute toxicity); details: mouse, in vivo, ip
[2] = system: cramping induced by phenylbenzoquinone; assay: antalgic activity: percentage inhibition of cramping induced by phenylbenzoquinone, mice i.p.; assay type: in vivo; details: dose one tenth of LD-50 mice i.p., over 5 minutes, phenylbenzoquinone 0.02% i.p.
Procedure: The antalgic activity of the compounds of formula I was determined by measuring the cramping induced by phenylbenzoquinone, as described by Siegmund et al, Proc. Soc. Exp. Biol. Med. ([…]) 95, 729. A painful reaction, characterized by twisting movements and elongation of the abdomen, with scraping of the rear paws, was introduced by the intraperitoneal administration of a 0.02% w/v solution of phenyl-benzoquinone in […] at a rate of 0.5 ml/20 g body weight. The activity was measured by the percentage inhibition in the number of painful symptons over 5 minutes.

[3] = LD50 mice per os (acute toxicity); details: mouse, in vivo, po
[4] = LD0 rat (acute toxicity); assay type: in vivo
[5] = system: antalgic activity; assay: ED50 mice per os antalgic activity; assay type: in vivo; details: Mus musculus, po
[6] = kidney troubles / tolerance; assay type: in vivo; details: footnote (a), in connection with ED50 mice per os
[7] = clinical double blind test as an antalgic agent; assay type: in vivo; details: 41 patients, 400 mg per day, tablets, 20 days
Procedure: The compound of Example 1 has been tested clinically as an antalgic agent on 41 patients. A double blind test was carried out, using placebos and a dose of 400 mg per day of the active compound, administered as tablets.

COc1ccc(C(=O)c2cccc(OC(C)(C)C(=O)O)c2)cc1 [Example 2]
LD50 [1]: 300 mg/kg
Percentage of diminution of cramping, Tested compound [2]: 97%

Cc1ccc(C(=O)c2cccc(OC(C)(C)C(=O)O)c2)cc1C [Example 5]
LD50 [1]: 450 mg/kg
Percentage of diminution of cramping, Tested compound [2]: 100%

CC(C)(Oc1cccc(C(=O)c2cccc(C(F)(F)F)c2)c1)C(=O)O [Example 3]
LD50 [1]: 300 mg/kg
Percentage of diminution of cramping, Tested compound [2]: 43%

Cc1ccccc1C(=O)c1cccc(OC(C)(C)C(=O)O)c1 [Example 11]
LD50 [1]: 600 mg/kg
Percentage of diminution of cramping, Tested compound [2]: 70%

CC(Oc1cccc(C(=O)c2cccc(C(F)(F)F)c2)c1)C(=O)O (stereo not drawn) [Example 7]
LD50 [1]: 350 mg/kg
Percentage of diminution of cramping, Tested compound [2]: 61%

O=C(O)COc1cccc(C(=O)c2ccc(Cl)cc2Cl)c1 [Example 9]
LD50 [1]: 350 mg/kg
Percentage of diminution of cramping, Tested compound [2]: 94%

Cc1ccc(C(=O)c2cccc(OC(C)(C)C(=O)O)c2)c(C)c1 [Example 10]
LD50 [1]: 600 mg/kg
Percentage of diminution of cramping, Tested compound [2]: 69%

Cc1ccc(C(=O)c2cccc(OCC(=O)O)c2)cc1 [Example 12]
LD50 [1]: 450 mg/kg
Percentage of diminution of cramping, Tested compound [2]: 92%

CC(Oc1cccc(C(=O)c2ccccc2)c1)C(=O)O (stereo not drawn) [Example 6]
LD50 [1]: 770 mg/kg
Percentage of diminution of cramping, Tested compound [2]: 100%

Cc1ccc(C(=O)c2cccc(OC(C)(C)C(=O)O)c2)cc1 [Example 4]
LD50 [1]: 400 mg/kg
Percentage of diminution of cramping, Tested compound [2]: 66%

CC(C)(Oc1cccc(C(=O)c2ccccc2)c1)C(=O)O [Example 1, 2-(3-benzoyl)-phenoxy-2-methylpropionic acid]
LD50 [1]: 350 mg/kg
Percentage of diminution of cramping, Tested compound [2]: 95%
LD50 [3]: 350 mg/kg
KD0 rat i.p. ([4]; i.p.): 540 mg/kg
LD0 rat per os ([4]; per os): higher than 1600 mg/kg
ED50 [5]: 35 mg/kg
kidney troubles [6]: without kidney troubles
tolerance of the product ([7]; double blind): excellent
activity good, cases ([7]; double blind, patients who had received the active compound): 80%
relief of symptoms ([7]; patients who had received the active compound): the symptoms had been relieved

Cc1ccc(C(=O)c2cccc(OC(C)C(=O)O)c2)cc1 (stereo not drawn) [Example 13]
LD50 [1]: 700 mg/kg
Percentage of diminution of cramping, Tested compound [2]: 98%

CC(Oc1cccc(C(=O)c2ccc(Cl)cc2Cl)c1)C(=O)O (stereo not drawn) [Example 8]
LD50 [1]: 800 mg/kg
Percentage of diminution of cramping, Tested compound [2]: 100%

O=C(OCC(O)CO)c1ccccc1Nc1ccnc2cc(Cl)ccc12 (stereo not drawn) [Glaphenine, 2,3-dihdroxypropyl N-(7-chloro-4-quinolyl)-anthranilate, reference compound]
ED50 [5]: 25 mg/kg
kidney troubles [6]: induces kidney troubles

Reference: patent publication US4242358A, “Method of treatment of algiae” (Societe de Recherches Industrielles (Sori), priority 1979, dated 1980)
